Measured values published in ChEMBL document CHEMBL4270599, “Synthesis of a 3'-C-ethynyl-β-d-ribofuranose purine nucleoside library: Discovery of C7-deazapurine analogs as potent antiproliferative nucleosides” (Eur J Med Chem, 2018).

Columns and labels:
Type in all cases: functional
MCF7 [1] = experiment: Growth inhibition of human MCF7 cells assessed as cell growth at 10^-5 M incubated for 48 hrs by sulforhodamine B assay relative to control; conditions: MCF7, 48 h, read-out: Activity
Malme-3M = experiment: Growth inhibition of human MALME-3M cells assessed as cell growth at 10^-7 M incubated for 48 hrs by sulforhodamine B assay relative to control; conditions: read-out: Activity
COLO 205 = experiment: Growth inhibition of human COLO205 cells assessed as cell growth at 10^-8 M incubated for 48 hrs by sulforhodamine B assay relative to control; conditions: COLO 205, 48 h, read-out: Activity
SR = experiment: Growth inhibition of human SR cells assessed as cell growth at 10^-6 M incubated for 48 hrs by sulforhodamine B assay relative to control; conditions: read-out: Activity
SK-MEL-28 [2] = experiment: Growth inhibition of human SK-MEL-28 cells assessed as cell growth at 10^-5 M incubated for 48 hrs by sulforhodamine B assay relative to control; conditions: SK-MEL-28, 48 h, read-out: Activity
IGROV-1 = experiment: Cytotoxicity against human IGROV1 cells after 48 hrs by SRB assay; conditions: IGROV-1, 48 h
M14 = experiment: Cytotoxicity against human M14 cells after 48 hrs by SRB assay; conditions: M14, 48 h
NCI-H23 [3] = experiment: Growth inhibition of human NCI-H23 cells assessed as cell growth at 10^-8 M incubated for 48 hrs by sulforhodamine B assay relative to control; conditions: NCI-H23, 48 h, read-out: Activity
NCI/ADR-RES = experiment: Growth inhibition of human NCI/ADR-RES cells assessed as cell growth at 10^-7 M incubated for 48 hrs by sulforhodamine B assay relative to control; conditions: read-out: Activity
RXF 393 = experiment: Cytotoxicity against human RXF393 cells after 48 hrs by SRB assay; conditions: RXF 393, 48 h
NCI-H522 = experiment: Growth inhibition of human NCI-H522 cells assessed as cell growth at 10^-7 M incubated for 48 hrs by sulforhodamine B assay relative to control; conditions: NCI-H522, 48 h, read-out: Activity
RPMI-8226 = experiment: Cytotoxicity against human RPMI8226 cells after 48 hrs by SRB assay; conditions: RPMI-8226, 48 h
NCI-H460 = experiment: Growth inhibition of human NCI-H460 cells assessed as cell growth at 10^-6 M incubated for 48 hrs by sulforhodamine B assay relative to control; conditions: NCI-H460, 48 h, read-out: Activity
OVCAR-5 = experiment: Growth inhibition of human OVCAR5 cells assessed as cell growth at 10^-8 M incubated for 48 hrs by sulforhodamine B assay relative to control; conditions: OVCAR-5, 48 h, read-out: Activity
MCF7 [4] = experiment: Growth inhibition of human MCF7 cells assessed as cell growth at 10^-7 M incubated for 48 hrs by sulforhodamine B assay relative to control; conditions: MCF7, 48 h, read-out: Activity
HCC 2998 = experiment: Growth inhibition of human HCC2998 cells assessed as cell growth at 10^-7 M incubated for 48 hrs by sulforhodamine B assay relative to control; conditions: HCC 2998, 48 h, read-out: Activity
NCI-H226 [5] = experiment: Growth inhibition of human NCI-H226 cells assessed as cell growth at 10^-6 M incubated for 48 hrs by sulforhodamine B assay relative to control; conditions: NCI-H226, 48 h, read-out: Activity
NCI-H23 [6] = experiment: Cytotoxicity against human NCI-H23 cells after 48 hrs by SRB assay; conditions: NCI-H23, 48 h
Hs-578T = experiment: Growth inhibition of human Hs 578T cells assessed as cell growth at 10^-6 M incubated for 48 hrs by sulforhodamine B assay relative to control; conditions: read-out: Activity
SK-MEL-28 [7] = experiment: Cytotoxicity against human SK-MEL-28 cells after 48 hrs by SRB assay; conditions: SK-MEL-28, 48 h
NCI-H226 [8] = experiment: Cytotoxicity against human NCI-H226 cells after 48 hrs by SRB assay; conditions: NCI-H226, 48 h
SNB-75 = experiment: Growth inhibition of human SNB75 cells assessed as cell growth at 10^-7 M incubated for 48 hrs by sulforhodamine B assay relative to control; conditions: SNB-75, 48 h, read-out: Activity
PC-3 = experiment: Growth inhibition of human PC3 cells assessed as cell growth at 10^-8 M incubated for 48 hrs by sulforhodamine B assay relative to control; conditions: PC-3, 48 h, read-out: Activity
TK-10 = experiment: Growth inhibition of human TK10 cells assessed as cell growth at 10^-5 M incubated for 48 hrs by sulforhodamine B assay relative to control; conditions: TK-10, 48 h, read-out: Activity
LOX IMVI = experiment: Growth inhibition of human LOXIMVI cells assessed as cell growth at 10^-7 M incubated for 48 hrs by sulforhodamine B assay relative to control; conditions: read-out: Activity
MDA-MB-435 = experiment: Growth inhibition of human MDA-MB-435 cells assessed as cell growth at 10^-8 M incubated for 48 hrs by sulforhodamine B assay relative to control; conditions: MDA-MB-435, 48 h, read-out: Activity
BT-549 = experiment: Cytotoxicity against human BT549 cells after 48 hrs by SRB assay; conditions: BT-549, 48 h
HOP-62 = experiment: Growth inhibition of human HOP62 cells assessed as cell growth at 10^-8 M incubated for 48 hrs by sulforhodamine B assay relative to control; conditions: HOP-62, 48 h, read-out: Activity
A498 = experiment: Cytotoxicity against human A498 cells after 48 hrs by SRB assay; conditions: A498, 48 h
MDA-MB-468 = experiment: Cytotoxicity against human MDA-MB-468 cells after 48 hrs by SRB assay; conditions: MDA-MB-468, 48 h
MCF7 [9] = experiment: Growth inhibition of human MCF7 cells assessed as cell growth at 10^-6 M incubated for 48 hrs by sulforhodamine B assay relative to control; conditions: MCF7, 48 h, read-out: Activity
[10] = read-out: LC50 (the source's name)
[11] = read-out: pLC50 (the source's name) (converted)

Work on C#C[C@@]1(O)[C@@H](CO)O[C@@H](n2cc(F)c3c(N)ncnc32)[C@@H]1O yielded a growth at 10 µM (MCF7 [1]) of 1%, a growth at 0.1 µM (Malme-3M) of 98% and a growth at 0.01 µM (COLO 205) of 101%. It also gave a growth at 1 µM (SR) of 9%, a growth at 10 µM (SK-MEL-28 [2]) of 37% and a CC50 (IGROV-1; [10]) of over 100000 nM. It also gave a TGI (IGROV-1; read-out: TGI) of 1420 nM, a GI50 (IGROV-1; read-out: pGI50 (converted)) of 324 nM and a TGI (IGROV-1; read-out: pTGI (converted)) of 1410 nM. The CC50 (M14; [10]) was over 100000 nM, the TGI (M14; read-out: TGI) was 2390 nM and the GI50 (M14; read-out: pGI50 (converted)) was 479 nM. It also gave a TGI (M14; read-out: pTGI (converted)) of 2400 nM, a growth at 0.01 µM (NCI-H23 [3]) of 97% and a growth at 0.1 µM (NCI/ADR-RES) of 76%. The CC50 (RXF 393; [10]) was over 100000 nM, the TGI (RXF 393; read-out: TGI) was 2990 nM and the GI50 (RXF 393; read-out: pGI50 (converted)) was 724 nM. The TGI (RXF 393; read-out: pTGI (converted)) was 3020 nM, the growth at 0.1 µM (NCI-H522) was 68% and the CC50 (RPMI-8226; [10]) was over 100000 nM. For the same compound, the TGI (RPMI-8226; read-out: TGI) was 1980 nM, the GI50 (RPMI-8226; read-out: pGI50 (converted)) was 219 nM and the TGI (RPMI-8226; read-out: pTGI (converted)) was 2000 nM. It also gave a growth at 1 µM (NCI-H460) of 5%, a growth at 0.01 µM (OVCAR-5) of 96% and a growth at 0.1 µM (MCF7 [4]) of 51%. The growth at 0.1 µM (HCC 2998) was 97%, the growth at 1 µM (NCI-H226 [5]) was 32% and the TGI (NCI-H23 [6]; read-out: TGI) was 6850 nM. For the same compound, the GI50 (NCI-H23 [6]; read-out: pGI50 (converted)) was 398 nM, the CC50 (NCI-H23 [6]; [11]) was over 100000 nM and the TGI (NCI-H23 [6]; read-out: pTGI (converted)) was 6920 nM. For the same compound, the growth at 1 µM (Hs-578T) was 97%, the TGI (SK-MEL-28 [7]; read-out: TGI) was over 100000 nM and the GI50 (SK-MEL-28 [7]; read-out: pGI50 (converted)) was 4270 nM. It also gave a CC50 (SK-MEL-28 [7]; [11]) of over 100000 nM, a TGI (SK-MEL-28 [7]; read-out: pTGI (converted)) of over 100000 nM and a TGI (NCI-H226 [8]; read-out: TGI) of 2630 nM. The GI50 (NCI-H226 [8]; read-out: pGI50 (converted)) was 525 nM, the CC50 (NCI-H226 [8]; [11]) was over 100000 nM and the TGI (NCI-H226 [8]; read-out: pTGI (converted)) was 2630 nM. It also gave a growth at 0.1 µM (SNB-75) of 107%, a growth at 0.01 µM (PC-3) of 92% and a growth at 10 µM (TK-10) of -9%. The growth at 0.1 µM (LOX IMVI) was 87%, the growth at 0.01 µM (MDA-MB-435) was 98% and the CC50 (BT-549; [10]) was over 100000 nM. For the same compound, the TGI (BT-549; read-out: TGI) was 4180 nM, the GI50 (BT-549; read-out: pGI50 (converted)) was 851 nM and the TGI (BT-549; read-out: pTGI (converted)) was 4170 nM. For the same compound, the growth at 0.01 µM (HOP-62) was 90%, the TGI (A498; read-out: TGI) was 2270 nM and the GI50 (A498; read-out: pGI50 (converted)) was 724 nM. It also gave a CC50 (A498; [11]) of 5890 nM, a TGI (A498; read-out: pTGI (converted)) of 2290 nM and a TGI (MDA-MB-468; read-out: TGI) of 1530 nM. The GI50 (MDA-MB-468; read-out: pGI50 (converted)) was 302 nM, the CC50 (MDA-MB-468; [11]) was 7940 nM and the TGI (MDA-MB-468; read-out: pTGI (converted)) was 1550 nM. The growth at 1 µM (MCF7 [9]) was -8%.
